One data set has as its system Canis familiaris. Description: Toxicity in dog at 30 to 300 mg/kg administered via oral gavage on day 1 and day 5 by histopathological method. It is filed as organism-based, Canis lupus familiaris. Particulars: in vivo.
Data set [1] has as its system Rattus norvegicus. The experiment in a line: Ex vivo receptor occupancy at P2X7 in Sprague-Dawley rat brain at 10 mg/kg, po after 24 hrs by autoradiography. Format: functional.
A short description of data set [2]: Antagonist activity at dog P2X7 assessed as inhibition of BzATP-induced calcium flux preincubated for 30 mins followed by BzATP addition measured over 180 secs by FLIPR assay. More on the design: species or system Canis lupus familiaris. Background: A change in cytosolic calcium serves as a functional read-out for many receptors and channels.
The target of another data set is P2X purinoceptor 7 (Mus musculus, UniProt Q9Z1M0). Description: Antagonist activity at mouse P2X7 assessed as inhibition of BzATP-induced calcium flux preincubated for 30 mins followed by BzATP addition measured over 180 secs by FLIPR assay.
In data set [3] the target is P2X2/P2X3 heterotrimeric receptor (Homo sapiens) (UniProt Q9UBL9+P56373). The experiment in a line: Antagonist activity at P2X2/3 (unknown origin) assessed as inhibition of BzATP-induced calcium flux up to 10 uM preincubated for 30 mins followed by BzATP addition measured over 180 secs by FLIPR assay. Format: protein-complex assay.
Data set [4] concerns the target P2X purinoceptor 2 (Homo sapiens) (UniProt Q9UBL9). Description: Antagonist activity at P2X2 (unknown origin) assessed as inhibition of BzATP-induced calcium flux up to 10 uM preincubated for 30 mins followed by BzATP addition measured over 180 secs by FLIPR assay.
Data set [5] is described as follows: Metabolic stability in cynomolgus monkey liver microsomes at 1 uM after 5 to 60 mins by LC-MS/MS analysis. Format: ADME, Macaca fascicularis, microsome. (In general: Microsomes from liver hold many membrane-bound enzymes, among them those of drug oxidation.)
Data set [6] has as its system Liver. The experiment in a line: Metabolic stability in mouse liver microsomes at 1 uM after 5 to 60 mins by LC-MS/MS analysis. Format: ADME, microsome.
Data set [7] relates to Liver. Description: Metabolic stability in human liver microsomes at 1 uM after 5 to 60 mins by LC-MS/MS analysis. Format: ADME, microsome.
Data set [8] is described as follows: Half life in beagle dog at 0.5 mg/kg, iv by LC-MS/MS analysis. Particulars: in vivo. Format: ADME, organism-based, Canis lupus familiaris.
Data set [9] in a line: Volume of distribution at steady state in cynomolgus monkey at 1 mg/kg, iv or 5 mg/kg, po by LC-MS/MS analysis. Particulars: in vivo, read-out: Vdss. Format: ADME, organism-based, Macaca fascicularis.
Data set [10] can be described thus: Volume of distribution at steady state in beagle dog at 0.5 mg/kg, iv or 2.5 mg/kg, po by LC-MS/MS analysis. Format: ADME, organism-based, Canis lupus familiaris. To be noted: in vivo, read-out: Vdss.
In data set [11] the test system is Rattus norvegicus. Description: Ex vivo receptor occupancy at P2X7 in po dosed Sprague-Dawley rat brain after 60 mins by autoradiography. Format: functional.
Data set [12] relates to Rattus norvegicus. Description: Ex vivo receptor occupancy at P2X7 in po dosed Sprague-Dawley rat brain assessed as plasma concentration required to achieve EC50 after 60 mins by autoradiography. It is filed as functional, organism-based.
Data set [13] can be described thus: Clearance in Sprague-Dawley rat at 1 mg/kg, iv or 5 mg/kg, po by LC-MS/MS analysis. Particulars: in vivo. Format: ADME, organism-based.
A short description of data set [14]: Protein binding in rat brain at 5 uM after 5 hrs by equilibrium dialysis method. It is filed as ADME, tissue-based. To be noted: read-out: PB (converted). (In general: Equilibrium dialysis compares concentrations on both sides of a semipermeable membrane.)
The nature of data set [15]: Solubility of compound in phosphate buffer at pH 2 after 3 days. It is filed as physicochemical.

Values after ≈ are worked out from the molar mass of the structure shown. Active and inactive are the calls of the source. No cut-off for these calls is given here.

Sequence of P2X purinoceptor 2 (Homo sapiens) (Q9UBL9 whole entry): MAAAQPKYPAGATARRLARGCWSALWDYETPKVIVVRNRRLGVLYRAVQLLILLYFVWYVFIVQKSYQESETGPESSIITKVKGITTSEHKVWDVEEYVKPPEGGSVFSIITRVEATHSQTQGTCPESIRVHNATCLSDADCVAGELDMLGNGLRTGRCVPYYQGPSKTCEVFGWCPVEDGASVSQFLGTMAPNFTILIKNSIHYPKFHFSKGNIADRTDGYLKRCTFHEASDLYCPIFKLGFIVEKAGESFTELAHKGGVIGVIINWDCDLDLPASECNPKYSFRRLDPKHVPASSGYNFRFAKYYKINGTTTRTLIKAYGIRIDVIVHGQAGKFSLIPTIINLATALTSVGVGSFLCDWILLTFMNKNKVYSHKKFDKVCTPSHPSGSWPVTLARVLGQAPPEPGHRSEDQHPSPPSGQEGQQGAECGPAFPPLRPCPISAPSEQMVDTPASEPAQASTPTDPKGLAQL
Sequence of P2X purinoceptor 7 (Q9Z1M0 whole entry): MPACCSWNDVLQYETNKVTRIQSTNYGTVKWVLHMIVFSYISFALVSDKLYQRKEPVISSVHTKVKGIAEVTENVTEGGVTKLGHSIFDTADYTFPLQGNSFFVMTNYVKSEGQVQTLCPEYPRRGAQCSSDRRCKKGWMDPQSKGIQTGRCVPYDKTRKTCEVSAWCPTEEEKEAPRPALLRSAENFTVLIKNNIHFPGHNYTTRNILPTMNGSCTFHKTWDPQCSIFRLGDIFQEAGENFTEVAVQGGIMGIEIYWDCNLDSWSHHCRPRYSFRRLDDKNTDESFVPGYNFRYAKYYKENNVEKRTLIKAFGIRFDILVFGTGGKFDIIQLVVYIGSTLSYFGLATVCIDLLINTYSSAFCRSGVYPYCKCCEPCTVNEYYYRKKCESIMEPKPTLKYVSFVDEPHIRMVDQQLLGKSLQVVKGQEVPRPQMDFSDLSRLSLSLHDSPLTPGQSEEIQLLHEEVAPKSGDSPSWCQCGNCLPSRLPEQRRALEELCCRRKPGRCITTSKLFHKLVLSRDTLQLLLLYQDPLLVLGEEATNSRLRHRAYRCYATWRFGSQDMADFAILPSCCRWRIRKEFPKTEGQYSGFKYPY

The term pIC50 denotes −log10 of the IC50, conventionally taken in molar units. Usually IC50 stands for the midpoint of a concentration-inhibition curve. As usually defined, the half-life is how long it takes for the measured level to halve. A word on the ED50: it is the dose that gives a 50% effect, or the effect in half of the subjects. Broadly, the solubility is the concentration that dissolves in the medium under given conditions. Turning to `C[C@@H]1c2nnn(-c3ncc(F)cn3)c2CCN1C(=O)c1cccc(C(F)(F)F)c1Cl` [JNJ-54175446], the Activity result in the data set on Canis familiaris is given as “Non-Toxic”. For the same compound, the Occ is more than 80% in the data set on Rattus norvegicus [1] and “Dose-dependent effect” in the data set on Rattus norvegicus [11]. Moreover, the pIC50 in data set [2] is 7.9. Moreover, the IC50 at P2X purinoceptor 7 was 0.0158 µM. The inhibition result in [3] and in data set [4] was “inactive” throughout. Moreover, the Stability entry (in data set [5]; in the data set on Liver [6]; in the data set with Liver [7]) was “Stable” in each case. This compound also showed a half-life in [8] of 32 h. Moreover, the Vd was determined as 2.1 L/kg in data set [9] and 2.5 L/kg in [10]. Also, the median effective dose (ED50) in the data set with Rattus norvegicus [11] (1 h) was determined as 0.46 mg/kg. For the same compound, the Cp in the data set on Rattus norvegicus [12] is 105 ng/mL. The same compound displayed a clearance in data set [13] of 0.174 L/h/kg. Besides, the fraction unbound at 5 h, 5 µM in [14] is 0.051. Moreover, the solubility at 72 h in data set [15] is 38.7 µM (≈ 17.1 µg/mL).
